Data as given in patent US10721934B2, “Enhanced preservative” (Arch Chemicals, Inc., priority 2013, dated 2020).

Assays:
Format in all cases: cell-based
[1] = tested on: Aspergillus brasiliensis; test: MIC test, 96 well microtiter plate; settings: single chemical
Outline: (§1)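 Broth microdilution MIC in broth suited to each organism; actives serially diluted in sterile water, starting concentration set by efficacy range. Inoculum in 2× broth added per well to approximately 5×10^5 final. Amines also tested combined with a pyrithione and two isothiazolinones.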

[2] = tested on: Escherichia coli; test: MIC test, 96 well microtiter plate; settings: single chemical
Outline: as §1

[3] = tested on: Candida albicans; test: MIC test, 96 well microtiter plate; settings: single chemical
Outline: as §1

[4] = tested on: Staphylococcus aureus; test: MIC test, 96 well microtiter plate; settings: single chemical
Outline: as §1

[5] = tested on: Aureobasidium pullulans; test: MIC test, 96 well microtiter plate; settings: single chemical
Outline: as §1

[6] = tested on: mixed bacterial inoculum (Pseudomonas aeruginosa, Enterobacter cloacae, Escherichia coli, Acinetobacter calcoaceticus); test: Repeated inoculation of standard acrylic paint, streak plate rating
Outline: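 Acrylic paint containing pyrithione, isothiazolinone and biocide enhancing agent, alone or mixed at varied concentrations, was challenged three times with an aqueous suspension of the four bacteria in equal proportions. Samples were streak plated 24, 48 and 72 h after inoculation and the plates rated for growth.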

[7] = tested on: Pseudomonas aeruginosa ATCC 15442; test: Minimum Inhibitory Concentration (MIC) test, 96 well microtiter plate; settings: single chemical
Procedure: Microorganisms: Pseudomonas aeruginosa ATCC 15442
MIC set up: A 96 well microtiter plate Minimum Inhibitory Concentration (MIC) test was run in broth suitable for the test organism. Serially diluted actives were prepared in sterilized water, and the start-up concentration varied depending on the efficacy range. Inocula prepared in 2× suitable broth was added into each well, and the final concentrations of bacteria were adjusted to approximately 5×10^5.

Question: With Zinc Pyrithione [ZnPT] as the substance, how does the “Minimum Inhibitory Concentration” value [1] read?
Answer: Its value is 15.6 ppm.

Question: And the “Minimum Inhibitory Concentration” value [2]?
Answer: Its value is 3.9 ppm.

Question: What about the “Minimum Inhibitory Concentration” value [3] of the same substance?
Answer: Its value is 7.8 ppm.

Question: And the “Minimum Inhibitory Concentration” value [4]?
Answer: The value was 7.8 ppm.

Question: And the “Minimum Inhibitory Concentration” value [5]?
Answer: Its value is 3.9 ppm.

Question: What about the streak plate rating ([6]; Set Five, ZPT 50 ppm, 1st inoculation 24 h) of the same substance?
Answer: Its streak plate rating is 0.

Question: What about the streak plate rating ([6]; Set Five, ZPT 50 ppm, 1st inoculation 48 h) of the same substance?
Answer: The streak plate rating was 0.

Question: And the streak plate rating ([6]; Set Five, ZPT 50 ppm, 1st inoculation 72 h)?
Answer: Its streak plate rating is 0.

Question: What about the streak plate rating ([6]; Set Five, ZPT 50 ppm, 2nd inoculation 24 h) of the same substance?
Answer: Its streak plate rating is 2 (6-15 viable microorganisms Lightly contaminated).

Question: And the streak plate rating ([6]; Set Five, ZPT 50 ppm, 2nd inoculation 48 h)?
Answer: The streak plate rating was 0.

Question: What about the streak plate rating ([6]; Set Five, ZPT 50 ppm, 2nd inoculation 72 h) of the same substance?
Answer: The streak plate rating was 0.

Question: What about the streak plate rating ([6]; Set Five, ZPT 50 ppm, 3rd inoculation 24 h) of the same substance?
Answer: The streak plate rating was 3 (16-30 viable microorganisms Moderately contaminated).

Question: What about the streak plate rating ([6]; Set Five, ZPT 50 ppm, 3rd inoculation 48 h) of the same substance?
Answer: The streak plate rating was 5 (>45 viable microorganisms Severely contaminated).

Question: What about the streak plate rating ([6]; Set Five, ZPT 50 ppm, 3rd inoculation 72 h) of the same substance?
Answer: The streak plate rating was 5 (>45 viable microorganisms Severely contaminated).

Question: And the streak plate rating ([6]; Set Four, ZPT 50 ppm, 1st inoculation 24 h)?
Answer: Its streak plate rating is 0.

Question: What about the streak plate rating ([6]; Set Four, ZPT 50 ppm, 1st inoculation 48 h) of the same substance?
Answer: The streak plate rating was 0.

Question: What about the streak plate rating ([6]; Set Four, ZPT 50 ppm, 1st inoculation 72 h) of the same substance?
Answer: Its streak plate rating is 0.

Question: And the streak plate rating ([6]; Set Four, ZPT 50 ppm, 2nd inoculation 24 h)?
Answer: Its streak plate rating is 2 (6-15 viable microorganisms Lightly contaminated).

Question: What about the streak plate rating ([6]; Set Four, ZPT 50 ppm, 2nd inoculation 48 h) of the same substance?
Answer: The streak plate rating was 0.

Question: And the streak plate rating ([6]; Set Four, ZPT 50 ppm, 2nd inoculation 72 h)?
Answer: The streak plate rating was 0.

Question: What about the streak plate rating ([6]; Set Four, ZPT 50 ppm, 3rd inoculation 24 h) of the same substance?
Answer: The streak plate rating was 3 (16-30 viable microorganisms Moderately contaminated).

Question: And the streak plate rating ([6]; Set Four, ZPT 50 ppm, 3rd inoculation 48 h)?
Answer: The streak plate rating was 5 (>45 viable microorganisms Severely contaminated).

Question: What about the streak plate rating ([6]; Set Four, ZPT 50 ppm, 3rd inoculation 72 h) of the same substance?
Answer: Its streak plate rating is 5 (>45 viable microorganisms Severely contaminated).

Question: And the streak plate rating ([6]; Set One, ZPT 50 ppm, 1st inoculation 24 h)?
Answer: Its streak plate rating is 3 (16-30 viable microorganisms Moderately contaminated).

Question: What about the streak plate rating ([6]; Set One, ZPT 50 ppm, 1st inoculation 48 h) of the same substance?
Answer: The streak plate rating was 3 (16-30 viable microorganisms Moderately contaminated).

Question: And the streak plate rating ([6]; Set One, ZPT 50 ppm, 2nd inoculation 24 h)?
Answer: The streak plate rating was 5 (>45 viable microorganisms Severely contaminated).

Question: What about the streak plate rating ([6]; Set One, ZPT 50 ppm, 2nd inoculation 48 h) of the same substance?
Answer: The streak plate rating was 5 (>45 viable microorganisms Severely contaminated).

Question: And the streak plate rating ([6]; Set One, ZPT 50 ppm, 2nd inoculation 72 h)?
Answer: Its streak plate rating is 5 (>45 viable microorganisms Severely contaminated).

Question: And the streak plate rating ([6]; Set One, ZPT 50 ppm, 3rd inoculation 24 h)?
Answer: Its streak plate rating is 5 (>45 viable microorganisms Severely contaminated).

Question: What about the streak plate rating ([6]; Set One, ZPT 50 ppm, 3rd inoculation 48 h) of the same substance?
Answer: Its streak plate rating is 5 (>45 viable microorganisms Severely contaminated).

Question: And the streak plate rating ([6]; Set One, ZPT 50 ppm, 3rd inoculation 72 h)?
Answer: The streak plate rating was 5 (>45 viable microorganisms Severely contaminated).

Question: And the streak plate rating ([6]; Set Three, ZPT 50 ppm, 1st inoculation 24 h)?
Answer: Its streak plate rating is 5 (>45 viable microorganisms Severely contaminated).

Question: And the streak plate rating ([6]; Set Three, ZPT 50 ppm, 1st inoculation 48 h)?
Answer: The streak plate rating was 3 (16-30 viable microorganisms Moderately contaminated).

Question: What about the streak plate rating ([6]; Set Three, ZPT 50 ppm, 1st inoculation 72 h) of the same substance?
Answer: The streak plate rating was 5 (>45 viable microorganisms Severely contaminated).

Question: And the streak plate rating ([6]; Set Three, ZPT 50 ppm, 2nd inoculation 24 h)?
Answer: Its streak plate rating is 5 (>45 viable microorganisms Severely contaminated).

Question: What about the streak plate rating ([6]; Set Three, ZPT 50 ppm, 2nd inoculation 48 h) of the same substance?
Answer: Its streak plate rating is 5 (>45 viable microorganisms Severely contaminated).

Question: What about the streak plate rating ([6]; Set Three, ZPT 50 ppm, 2nd inoculation 72 h) of the same substance?
Answer: The streak plate rating was 5 (>45 viable microorganisms Severely contaminated).

Question: What about the streak plate rating ([6]; Set Three, ZPT 50 ppm, 3rd inoculation 24 h) of the same substance?
Answer: The streak plate rating was 5 (>45 viable microorganisms Severely contaminated).

Question: What about the streak plate rating ([6]; Set Three, ZPT 50 ppm, 3rd inoculation 48 h) of the same substance?
Answer: Its streak plate rating is 5 (>45 viable microorganisms Severely contaminated).

Question: What about the streak plate rating ([6]; Set Three, ZPT 50 ppm, 3rd inoculation 72 h) of the same substance?
Answer: The streak plate rating was 5 (>45 viable microorganisms Severely contaminated).

Question: What about the streak plate rating ([6]; Set Two, ZPT 25 ppm, 1st inoculation 24 h) of the same substance?
Answer: The streak plate rating was 5 (>45 viable microorganisms Severely contaminated).

Question: What about the streak plate rating ([6]; Set Two, ZPT 25 ppm, 1st inoculation 48 h) of the same substance?
Answer: Its streak plate rating is 5 (>45 viable microorganisms Severely contaminated).

Question: What about the streak plate rating ([6]; Set Two, ZPT 25 ppm, 1st inoculation 72 h) of the same substance?
Answer: The streak plate rating was 5 (>45 viable microorganisms Severely contaminated).

Question: And the streak plate rating ([6]; Set Two, ZPT 25 ppm, 2nd inoculation 24 h)?
Answer: The streak plate rating was 5 (>45 viable microorganisms Severely contaminated).

Question: And the streak plate rating ([6]; Set Two, ZPT 25 ppm, 2nd inoculation 48 h)?
Answer: The streak plate rating was 5 (>45 viable microorganisms Severely contaminated).

Question: What about the streak plate rating ([6]; Set Two, ZPT 25 ppm, 2nd inoculation 72 h) of the same substance?
Answer: Its streak plate rating is 5 (>45 viable microorganisms Severely contaminated).

Question: And the streak plate rating ([6]; Set Two, ZPT 25 ppm, 3rd inoculation 24 h)?
Answer: The streak plate rating was 5 (>45 viable microorganisms Severely contaminated).

Question: What about the streak plate rating ([6]; Set Two, ZPT 25 ppm, 3rd inoculation 48 h) of the same substance?
Answer: The streak plate rating was 5 (>45 viable microorganisms Severely contaminated).

Question: And the streak plate rating ([6]; Set Two, ZPT 25 ppm, 3rd inoculation 72 h)?
Answer: Its streak plate rating is 5 (>45 viable microorganisms Severely contaminated).

Question: What about the streak plate rating ([6]; Set Two, ZPT 50 ppm, 1st inoculation 24 h) of the same substance?
Answer: Its streak plate rating is 2 (6-15 viable microorganisms Lightly contaminated).

Question: And the streak plate rating ([6]; Set Two, ZPT 50 ppm, 1st inoculation 48 h)?
Answer: The streak plate rating was 3 (16-30 viable microorganisms Moderately contaminated).

Question: What about the streak plate rating ([6]; Set Two, ZPT 50 ppm, 1st inoculation 72 h) of the same substance?
Answer: The streak plate rating was 3 (16-30 viable microorganisms Moderately contaminated).

Question: And the streak plate rating ([6]; Set Two, ZPT 50 ppm, 2nd inoculation 24 h)?
Answer: Its streak plate rating is 4 (31-45 viable microorganisms Heavily contaminated).

Question: And the streak plate rating ([6]; Set Two, ZPT 50 ppm, 2nd inoculation 48 h)?
Answer: The streak plate rating was 5 (>45 viable microorganisms Severely contaminated).

Question: And the streak plate rating ([6]; Set Two, ZPT 50 ppm, 2nd inoculation 72 h)?
Answer: The streak plate rating was 5 (>45 viable microorganisms Severely contaminated).

Question: And the streak plate rating ([6]; Set Two, ZPT 50 ppm, 3rd inoculation 24 h)?
Answer: The streak plate rating was 5 (>45 viable microorganisms Severely contaminated).

Question: And the streak plate rating ([6]; Set Two, ZPT 50 ppm, 3rd inoculation 48 h)?
Answer: The streak plate rating was 5 (>45 viable microorganisms Severely contaminated).

Question: And the streak plate rating ([6]; Set Two, ZPT 50 ppm, 3rd inoculation 72 h)?
Answer: The streak plate rating was 5 (>45 viable microorganisms Severely contaminated).

Question: What about the “Minimum Inhibitory Concentration” value [7] of the same substance?
Answer: Its value is 62.5 ppm.
